Where two headings read alike, the source gives them in different places.
Key:
[1] = molecular target: T1, NAMPT (Homo sapiens, UniProt P43490); test: Biochemical inhibition assay: NAMPT enzymatic reaction, NMN quantified by mass spectrometry; settings: read-out: Biochem IC50
T1 construct: His tag; host or cells: E. coli
Procedure, shortened: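 Inhibition of E. coli-expressed His-tagged human NAMPT, measured as NMN formation by mass spectrometry after a 30 min room-temperature reaction containing 1 μM NAM, 100 μM PRPP and 2.5 mM ATP.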

[2] = test system: A2780 cells; test: In-vitro cell proliferation assay (SRB), A2780 cells; format: cell-based; settings: Homo sapiens, A2780, 72 h, A2780 cells, 72 hours, read-out: A2780 IC50
Procedure, shortened: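 Proliferation is assessed by sulforhodamine B staining following a 72-hour incubation with compound dilutions containing 0.1% DMSO.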

T1 sequence (P43490 whole entry): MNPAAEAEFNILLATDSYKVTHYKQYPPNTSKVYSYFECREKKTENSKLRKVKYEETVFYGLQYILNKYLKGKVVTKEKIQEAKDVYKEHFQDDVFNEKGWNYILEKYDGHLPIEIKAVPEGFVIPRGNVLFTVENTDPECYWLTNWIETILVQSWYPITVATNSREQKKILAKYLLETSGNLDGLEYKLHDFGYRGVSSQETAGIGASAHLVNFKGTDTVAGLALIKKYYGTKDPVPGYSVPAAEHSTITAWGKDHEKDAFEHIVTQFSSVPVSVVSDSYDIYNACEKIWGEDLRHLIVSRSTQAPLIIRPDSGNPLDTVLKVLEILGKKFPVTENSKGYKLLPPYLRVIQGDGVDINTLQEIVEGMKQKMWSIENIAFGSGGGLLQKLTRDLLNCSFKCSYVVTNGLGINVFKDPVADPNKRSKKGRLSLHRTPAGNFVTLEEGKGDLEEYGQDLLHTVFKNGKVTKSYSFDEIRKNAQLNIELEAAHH

SMILES	IC50 ([1]; NAMPT enzymatic assay)	IC50 ([2]; SRB)	IC50 ([1]; NAMPT enzymatic reaction)	IC50 ([2]; SRB assay)
COc1ccc(S(=O)(=O)c2ccc(CNC(=O)c3ccc4nccn4c3)cc2)nc1 [N-{[4-(5-methoxypyridine-2-sulfonyl)phenyl]methyl}imidazo[1,2-a]pyridine-6-carboxamide]	22.9 nM	17.3 nM		
O=C(NCc1ccc(S(=O)(=O)c2cncc3ccccc23)cc1)c1cc2ccncc2s1 [N-{[4-(isoquinoline-4-sulfonyl)phenyl]methyl}thieno[2,3-c]pyridine-2-carboxamide]	6.7 nM	0.8 nM	3 nM	0.7 nM
Cn1ncc2cccc(S(=O)(=O)c3ccc(CNC(=O)c4cc5cnccc5[nH]4)cc3)c21 [N-{[4-(1-methyl-1H-indazole-7-sulfonyl)phenyl]methyl}-1H-pyrrolo[3,2-c]pyridine-2-carboxamide]	37.1 nM	11.1 nM		
O=C(NCc1ccc(S(=O)(=O)c2cccc(F)c2Cl)cc1)c1cc2ccncc2o1		61.1 nM	17 nM	
O=C(NCc1ccc(S(=O)(=O)c2cnc(N3CCCC3)s2)cc1)c1ccc2nccn2c1 [N-({4-[2-(pyrrolidin-1-yl)-1,3-thiazole-5-sulfonyl]phenyl}methyl)imidazo[1,2-a]pyridine-6-carboxamide]	2.4 nM	0.4 nM		
COc1ccc(S(=O)(=O)c2ccc(CNC(=O)c3cnc4[nH]ncc4c3)cc2)c(F)c1		207 nM	120 nM	
Cc1ccc(F)c(S(=O)(=O)c2ccc(CNC(=O)c3cc4ccncc4o3)cc2)c1		13.4 nM	5.9 nM	
O=C(NCc1ccc(S(=O)(=O)c2cc(Cl)cc(C(F)(F)F)c2)cc1)c1cc2cnccc2[nH]1 [N-[(4-{[3-chloro-5-(trifluoromethyl)benzene]sulfonyl}phenyl)methyl]-1H-pyrrolo[3,2-c]pyridine-2-carboxamide]	19.9 nM	2.7 nM		
CCN(CC)C(=O)c1cc(Cl)cc(S(=O)(=O)c2ccc(CNC(=O)c3cc4ccncc4o3)cc2)c1 [N-[(4-{[3-chloro-5-(diethylcarbamoyl)benzene]sulfonyl}phenyl)methyl]furo[2,3-c]pyridine-2-carboxamide]	8.4 nM	1.7 nM		
COc1cccc(S(=O)(=O)c2ccc(CNC(=O)c3cc4ccncc4o3)cc2)c1OC		13.6 nM	9.3 nM	
Cc1cccc(S(=O)(=O)c2ccc(CNC(=O)c3cc4ccncc4o3)cc2)n1 [N-{[4-(6-methylpyridine-2-sulfonyl)phenyl]methyl}furo[2,3-c]pyridine-2-carboxamide]	12.8 nM	12.5 nM		
O=C(NCc1ccc(S(=O)(=O)c2cc(F)cc(Cl)c2)cc1)c1cc2ccncc2o1		3.1 nM	17.8 nM	
O=C(NCc1ccc(S(=O)(=O)c2cccc(OC(F)(F)F)c2)cc1)c1cc2ccncc2s1 [N-[(4-{[3-(trifluoromethoxy)benzene]sulfonyl}phenyl)methyl]thieno[2,3-c]pyridine-2-carboxamide]			2 nM	2.4 nM
CC(C)Oc1cc(F)ccc1S(=O)(=O)c1ccc(CNC(=O)c2cc3cnccc3[nH]2)cc1	25.4 nM	3.3 nM		
O=C(NCc1ccc(S(=O)(=O)c2cc(O)ccc2OC(F)(F)F)cc1)c1cnc2[nH]ncc2c1	21.9 nM	67.9 nM		
CCOc1cccc(S(=O)(=O)c2ccc(CNC(=O)c3ccc4nccn4c3)cc2)c1F		6.2 nM	5 nM	
Cc1ccc(Cl)cc1S(=O)(=O)c1ccc(CNC(=O)c2cc3ccncc3o2)cc1		7.8 nM	5.8 nM	
CCc1ccccc1S(=O)(=O)c1ccc(CNC(=O)c2cnc3[nH]ncc3c2)cc1 [N-({4-[(2-ethylbenzene)sulfonyl]phenyl}methyl)-1H-pyrazolo[3,4-b]pyridine-5-carboxamide]		13 nM	8.4 nM	
CS(=O)(=O)c1ccccc1S(=O)(=O)c1ccc(CNC(=O)c2cnc3[nH]ncc3c2)cc1		100 to 1000 nM	202 nM	
CCN(C)c1ncc(S(=O)(=O)c2ccc(CNC(=O)c3cc4ccncc4o3)cc2)s1 [N-[(4-{2-[ethyl(methyl)amino]-1,3-thiazole-5-sulfonyl}phenyl)methyl]furo[2,3-c]pyridine-2-carboxamide]	4.8 nM	0.9 nM		
CC(C)COc1cccc(S(=O)(=O)c2ccc(CNC(=O)c3cnc4nccn4c3)cc2)c1	3.9 nM	13.2 nM		
Cn1ncc2cc(S(=O)(=O)c3ccc(CNC(=O)c4cc5cnccc5[nH]4)cc3)ccc21 [N-{[4-(1-methyl-1H-indazole-5-sulfonyl)phenyl]methyl}-1H-pyrrolo[3,2-c]pyridine-2-carboxamide]	5.7 nM	3.1 nM		
Cc1cc(S(=O)(=O)c2ccc(CNC(=O)c3ccc4nccn4c3)cc2)c(C)cc1F		11 nM	44 nM	

SMILES	IC50 ([1]; NAMPT enzymatic assay)	IC50 ([2]; SRB)	IC50 ([1]; NAMPT enzymatic reaction)	IC50 ([2]; SRB assay)
Cc1ccncc1S(=O)(=O)c1ccc(CNC(=O)c2ccc3nccn3c2)cc1 [N-{[4-(4-methylpyridine-3-sulfonyl)phenyl]methyl}imidazo[1,2-a]pyridine-6-carboxamide]	66.5 nM	65.8 nM		
COc1cc(S(=O)(=O)c2ccc(CNC(=O)c3cnc4[nH]ncc4c3)cc2)ccc1F [N-({4-[(4-fluoro-3-methoxybenzene)sulfonyl]phenyl}methyl)-1H-pyrazolo[3,4-b]pyridine-5-carboxamide]		11.5 nM	23.9 nM	
CCOc1cc(S(=O)(=O)c2ccc(CNC(=O)c3ccc4nccn4c3)cc2)ccc1F		6 nM	17 nM	
CCOc1cccc(S(=O)(=O)c2ccc(CNC(=O)c3cnc4nccn4c3)cc2)c1		6.7 nM	2.1 nM	
Cc1cc(C)n(-c2cccc(S(=O)(=O)c3ccc(CNC(=O)c4cc5cnccc5[nH]4)cc3)c2)n1	13.2 nM	1.6 nM		
Cc1ccc(S(=O)(=O)c2ccc(CNC(=O)c3cnc4[nH]ncc4c3)cc2)c(C)c1 [N-({4-[(2,4-dimethylbenzene)sulfonyl]phenyl}methyl)-1H-pyrazolo[3,4-b]pyridine-5-carboxamide]		71.6 nM	61.2 nM	
Cc1ccc(S(=O)(=O)c2ccc(CNC(=O)c3cnc4[nH]ncc4c3)cc2)cc1F		5.6 nM	11.7 nM	
Cc1ccc(S(=O)(=O)c2ccc(CNC(=O)c3cnc4[nH]ncc4c3)cc2)c(Cl)c1 [N-({4-[(2-chloro-4-methylbenzene)sulfonyl]phenyl}methyl)-1H-pyrazolo[3,4-b]pyridine-5-carboxamide]		2.78 nM	5 nM	
O=C(NCc1ccc(S(=O)(=O)c2cncc(C(F)(F)F)c2)cc1)c1cnc2[nH]ncc2c1 [N-({4-[5-(trifluoromethyl)pyridine-3-sulfonyl]phenyl}methyl)-1H-pyrazolo[3,4-b]pyridine-5-carboxamide]	11 nM	4 nM		
CCCCc1ccc(S(=O)(=O)c2ccc(CNC(=O)c3cnc4nccn4c3)cc2)cc1		10.7 nM	5.3 nM	
COc1ccc(Cl)c(S(=O)(=O)c2ccc(CNC(=O)c3cnc4[nH]ncc4c3)cc2)c1 [N-({4-[(2-chloro-5-methoxybenzene)sulfonyl]phenyl}methyl)-1H-pyrazolo[3,4-b]pyridine-5-carboxamide]		66.8 nM	24.7 nM	
Cc1ccc(S(=O)(=O)c2ccc(CNC(=O)c3cc4ccncc4s3)cc2)c(Cl)c1		1.6 nM	24.9 nM	
O=C(NCc1ccc(S(=O)(=O)c2ccccc2CN2CCOCC2)cc1)c1ccc2nccn2c1 [N-[(4-{[2-(morpholin-4-ylmethyl)benzene]sulfonyl}phenyl)methyl]imidazo[1,2-a]pyridine-6-carboxamide]	136 nM	34.2 nM		
COc1ccc(S(=O)(=O)c2ccc(CNC(=O)c3ccc4nccn4c3)cc2)c(F)c1 [N-({4-[(2-fluoro-4-methoxybenzene)sulfonyl]phenyl}methyl)imidazo[1,2-a]pyridine-6-carboxamide]		22.9 nM	41.3 nM	
O=C(NCc1ccc(S(=O)(=O)c2ccc(-n3cccn3)cc2)cc1)c1cc2ccncc2o1	4.1 nM	7.3 nM		
O=C(NCc1ccc(S(=O)(=O)c2ccc3ncccc3c2)cc1)c1ccc2nccn2c1 [N-{[4-(quinoline-6-sulfonyl)phenyl]methyl}imidazo[1,2-a]pyridine-6-carboxamide]	5.16 nM	0.83 nM		
Cn1ncc2c(S(=O)(=O)c3ccc(CNC(=O)c4ccc5ncsc5c4)cc3)cccc21 [N-{[4-(1-methyl-1H-indazole-4-sulfonyl)phenyl]methyl}-1,3-benzothiazole-6-carboxamide]	9.8 nM	1000 to 10000 nM		
Cc1ccc(F)cc1S(=O)(=O)c1ccc(CNC(=O)c2cnc3[nH]ncc3c2)cc1 [N-({4-[(5-fluoro-2-methylbenzene)sulfonyl]phenyl}methyl)-1H-pyrazolo[3,4-b]pyridine-5-carboxamide]		59.7 nM	20.4 nM	
O=C(NCc1ccc(S(=O)(=O)c2cc(F)ccc2Cl)cc1)c1cnc2nccn2c1		53 nM	10.5 nM	
Cc1ccc(Cl)cc1S(=O)(=O)c1ccc(CNC(=O)c2cnc3[nH]ncc3c2)cc1 [N-({4-[(5-chloro-2-methylbenzene)sulfonyl]phenyl}methyl)-1H-pyrazolo[3,4-b]pyridine-5-carboxamide]		13.9 nM	22.7 nM	
CCCOc1ccc(S(=O)(=O)c2ccc(CNC(=O)c3cnc4nccn4c3)cc2)cc1Cl		2.4 nM	3.9 nM	
Cc1ccc(Cl)c(S(=O)(=O)c2ccc(CNC(=O)c3cc4ccncc4o3)cc2)c1F [N-({4-[(6-chloro-2-fluoro-3-methylbenzene)sulfonyl]phenyl}methyl)furo[2,3-c]pyridine-2-carboxamide]	21.9 nM	29.3 nM		
